This is an account of results in patent US7196057B2, “Fusion proteins for insect control” (University of Durham, priority 2001, dated 2007).

Entries after “also recorded” stand apart in the source; their conditions may differ.

In experiment [1] the test system is Vth stadium L. oleracea larvae. The experiment in a line: Insect bioassay 1: artificial diet feeding, 24 h. It is filed as in vivo, Lacanobia oleracea. To be noted: 1.5% of dietary protein (1.5 mg/5 g diet), 24 h exposure, n=7. On the procedure: (§1) A potato leaf based artificial diet (24) was used to assay recombinant proteins against newly moulted Vth stadium L. oleracea which were starved for 24 h prior to exposure to diets. To encourage feeding, sucrose was incorporated at 0.05% (w/w) in assays 2 A and B and at 0.5% (w/w) in assay 3. Individual larvae were maintained in clear plastic pots containing moist filter paper to prevent diet desiccation. Larval wet weights (−/+0.1 mg) were recorded before, during, and after exposure to treatments, and diet consumption was estimated on a wet weight basis. The amounts of recombinant proteins added to diets were based on activity values derived from agglutination assays. Larvae (n=7 per treatment) were exposed to control diet; control diet containing ammonia (0.0002 v/w); diet containing recombinant GNA at a concentration of approx. 1.5% (w/w) of dietary protein (1.5 mg/5 g diet wet weight) and diet containing recombinant FP at a concentration of approx. 1.5% (w/w) of dietary protein for 24 h.

For experiment [2], the system named is Vth instar L. oleracea larvae. The experiment in a line: Insect bioassay 2A: artificial diet feeding, 3 days. It is filed as in vivo, Lacanobia oleracea. To be noted: 0.5% of dietary protein (0.5 mg/5 g diet), 3 days exposure, n=8. On the procedure: as §1, with “assays.” for “assays. Larvae (n=7 per treatment) were exposed to control diet; control diet containing ammonia (0.0002 v/w); diet containing recombinant GNA at a concentration of approx. 1.5% (w/w) of dietary protein (1.5 mg/5 g diet wet weight) and diet containing recombinant FP at a concentration of approx. 1.5% (w/w) of dietary protein for 24 h.”
Larvae (n=8 per treatment) were exposed for 3 days to control diet; control diet containing ammonia; diet containing native GNA at approx. 0.5% (w/w) of dietary protein: diet containing native GNA and synthetic Manse-AS at a total concentration of approx. 0.5% (w/w) (i.e. ratio of GNA: Manse-AS equivalent to FP and diet containing FP at approx. 0.5% (w/w) of dietary protein.

Consider “GNA: Galanthus nivalis agglutinin (snowdrop lectin); standard GNA obtained from Vector Laboratories”, for which, in experiment [1], the “mean increase/decrease in weight of larvae” value is “more than 50%”. Also, the “increase/decrease in mean wet weight of larvae” value in experiment [2] is listed as “four fold increase in weight; also recorded: fourfold increase in weight”.
In the case of “recombinant GNA: Galanthus nivalis agglutinin (snowdrop lectin), 109 residues, expressed in E. coli with N-terminal His tag, SEQ ID NO: 2”, the “mean increase/decrease in weight of larvae” value in experiment [1] is “more than 50%”.
